Measurements reported in patent publication US20230288433A1, “DETECTION OF PHOSPHOINOSITIDES IN BLOOD CELLS AS A BIOMARKER FOR ALPHA SYNUCLEIN ASSOCIATED PATHOLOGIES AND A METHOD OF TREATMENT OF PARKINSON'S DISEASE AND THE RELATED NEURODEGENERATIONS” (YISSUM RESEARCH DEVELOPMENT COMPANY OF THE HEBREW …, priority 2021, published 2023).

What was measured:
[1] = test system: Numb-associated kinases (NAKs); assay: pAP2 (phospho-Thr156 μ2 subunit of AP2) signal by ICC in SK-Mel2 cells; type: cell-based; conditions: 10 μM for 3 hours
Procedure: FIGS. 12A-12H include fluorescent micrographs and graphs showing that α-Syn colocalizes with phosphorylated AP2 and PIP2 on clathrin-coated pits. (12A) SK-Mel2 cells were processed for the detection of the immunoreactive signals of endogenous α-Syn (ab 21976 ab, red), phosphorylated Thr156 μ2 subunit of AP2 (pAP2; gray) and PI4,5P2 (green) by immunocytochemistry (ICC). Bar=10 μm. (12B) SK-Mel2 cells treated with LP-935509 (10 μM, for 3 hours), to inhibit the phosphorylation of the μ2 subunit of AP2 and processed for ICC as in (12A). Bar=[…]. (12C) SK-Mel2 cells infected with lentivirus encoding shSNCA to silence α-Syn expression. Cells were treated with LP-935509 inhibitor as in (12B) and processed for ICC. Bar=[…]. (12D) SK-Mel2 cells as in (12A), however, immunoreacted for PI3,4P2 detection (green). Bar=[…]. […] Cells analyzed by FACS to immunodetect PI4,5P2 levels. […] (12G) Cells analyzed by FACS as in (12F) to detect PI3,4P2 signal. […] Colocalization of the signal obtained for α-Syn with the specified PIP was quantified and normalized to total α-Syn positive spots. […]
Phosphorylation at Thr156 of μ2 subunit of the clathrin adaptor AP2 starts following its binding to PI4,5P2 at the initiation of a CCP and throughout vesicle lifetime. The inventors analyzed SK-Mel2 cells, which express detectable levels of endogenous α-Syn protein. […]

PI3K/AKT pathway [2] = assay: PIP3/PIP2 ratio (FACS) and PSer473/total AKT (Western blot) in HepG2 cells expressing α-Syn; type: cell-based; conditions: inhibitor 100 nM for 2 hours, combined with CRISPR/CAS for PI3KCA or PI3KCB
Procedure: FIGS. 25A-25D include vertical bar graphs showing that silencing either PI3KCA or PI3KCB interfere with α-Syn-mediated AKT activation. (25A) HepG2 cells were co-infected with an empty vector (EV) or α-Syn expressing vector together with a CRISPR/CAS vector to silence either PI3KCA (CA, p110α) or PI3KCB (CB, p110β), or a control vector (CT). 72 hours post infection, cells were processed for the detection of PIPs by FACS or analyzed by Western blotting for the detection of AKT. […] (25B) The effect of PIK75 (100 nM, PI3KCA inhibitor) or TGX 221 (100 nM, PIKCB inhibitor) on PIP3/PIP2 ratio (left) or PSer473/total AKT ratio (right) as a function of α-Syn expression. Inhibitors were added for 2 hours before cells were lysed. […] Results are mean±SD of n=3-4 trials.

PI3K/AKT pathway [3] = assay: Treatments in disease models with inhibitors of the PI3K/AKT pathway
Source text: The PI3K/AKT pathway is activated in brains affected with PD and models thereof. Activated PI3K/AKT is exemplified by increases in PI3-Ps, including PI3,4,5P3 and PI3,4P2 that are required for the phosphorylation and activation of AKT phosphorylation at Thr308 and Ser 473. α-Syn is involved in activation of PI3K/AKT pathway. PI3K/AKT activation by α-Syn involves protein palmitoylation. […] Inhibitors of the PI3K/AKT pathway are useful to inhibit α-Syn′ toxicity. These may include Alpelisib and additional inhibitors of PI3K class I that act peripherally not crossing the blood brain barrier (BBB); or GDC-0084 and similar agents that can cross the BBB and act at the central nervous system. Or inhibitors of class II PI3K, for example, HY-151491, HY-151492 or HY-151490.α-Syn enhances PI3K activity by enhancing protein palmitoylation, including Ras palmitoylation that regulates PI3K activity. Class I and class II PI3Ks enzymes harbor a Ras binding domain and thus are affected by α-Syn. Class I and class II PI3Ks enzymes are activated by α-Syn and are targets for PD therapy. Inhibitors for class I and class II PI3Ks may be used for drug repurposing

[4] = test system: APT1/APT2 depalmitoylases; assay: PIP3/PIP2 ratio by FACS in α-Syn expressing HepG2 cells with depalmitoylase inhibitors; type: cell-based; conditions: serum starved 4 hours, 10 μM each
Procedure: ML348 and ML349, inhibit the depalmitoylating enzymes Acyl protein thioesterase 1 and 2 (APT-1, APT-2, respectively). HepG2 cells were infected to express a mock vector (EV) or α-Syn. 5 days post infection, cells were serum starved for 4 hours in the presence of the indicated inhibitors: 2-Bromo-Palmitate (2BP 50 μM, an inhibitor of palmitoylation), ML348 and ML349 (10 μM each). PIP levels determined by FACS as in FIG. 4. The ratio of PI3,4,5P3 (PIP3) to PI4,5P2 (PIP2) is presented. A representative experiment out of n=2 highly similar experiments. Mean±SE of the replicates within one experiment, n>2,000 gated cells.

HEK 293T cells [5] = assay: 568-Tf (transferrin) endocytosis with the rapamycin-inducible phosphatase; type: cell-based; conditions: control cultures without Inp45p expression
Procedure: (§1) FIGS. 15A-15E include fluorescent micrographs, a micrograph, and graphs showing that the enhancing effect of α-Syn on CME is PI4,5P2 dependent. (15A) HEK 293T cells, transfected to co-express the three plasmids: Lyn-FRB, FKBP-CFP-Inp54p and WT α-Syn. On day of experiment, cells were serum starved for 90 minutes and then incubated for 7 minutes with 568-Tf and rapamycin (500 nM) to induce the recruitment of the Inp45p phosphatase (P-ase) to the plasma membrane along with internalization of 568-Tf. Control cells were treated in parallel with DMSO (0.5% v/v). Cells were then acid-washed, fixed and immunoreacted with anti α-Syn ab (MJFR1; Green). Direct fluorescence for CFP (P-ase; Grey) and 568-Tf (Red). (15B) HEK 293T cells expressing Lyn-FRB and FKBP-CFP-Inp54p were treated either with rapamycin or DMSO as described in (15A), followed by immunoreaction with anti PI4,5P2 ab (Echelon). A quantification of PI4,5P2 signal is shown (n>9 cells per treatment; mean±SE; * P<0.01 t-test). (15C) Graph showing quantification of internalized 568-Tf signal in cells transfected and treated as in (15A). Cells transfected with a mock vector (white bars, squares) or α-Syn (black bars, circles). […] Protein samples were analyzed by a western blot, immunoreacted with anti-Nir2 ab (Abcam). […] Sister cultures were immunoreacted with anti PI4,5P2 ab and analyzed by FACS. […]

HEK 293T cells [6] = assay: PI4,5P2 levels by ICC after rapamycin-induced recruitment of the Inp45p phosphatase to the plasma membrane; type: cell-based; conditions: HEK 293T expressing Lyn-FRB and FKBP-CFP-Inp54p, rapamycin 500 nM; DMSO treated cells set at 100%
Procedure: as §1

Procedure for muscarinic receptors: To confirm the specificity of the PI4,5P2 signal that the inventors detected using anti PI4,5P2 Ab in cortical neurons, PI4,5P2 signal depletion following phospholipase C (PLC) activation was determined. […] Control cells were conditioned and treated in parallel but without the drug. Cells were fixed and immunoreacted with anti PI4,5P2 ab (FIG. 10A).

COc1ncccc1-c1cnn2ccc(N3CCN(C(=O)OC(C)C)CC3)nc12 [LP-935509]
colocalization of α-Syn and pAP2 [1]: no obvious colocalization
pAP2 signal [1]: dramatically reduced

Cc1cc(C(C)Nc2ccccc2)c2nc(N3CCOCC3)cc(=O)n2c1 (stereo not drawn) [TGX 221]
α-Syn-mediated increases in PI3K/AKT pathway activation (PIP3/PIP2 ratio, PSer473/total AKT) (PI3K/AKT pathway [2]): inhibition of α-Syn-mediated increases in PI3K/AKT pathway activation
aberrant activation of the PI3K/AKT pathway by α-Syn (PI3K/AKT pathway [3]): reduce the aberrant activation of this pathway by α-Syn

CC[C@@H]1C(=O)OC[C@@H]1Cc1cncn1C [pilocarpine]
PI4,5P2 signal following PLC activation (muscarinic receptors): loss of PI4,5P2 signal

Cc1ccc([N+](=O)[O-])cc1S(=O)(=O)N(C)/N=C/c1cnc2ccc(Br)cn12 [PIK75]
α-Syn-mediated increases in PI3K/AKT pathway activation (PIP3/PIP2 ratio, PSer473/total AKT) (PI3K/AKT pathway [2]): inhibition of α-Syn-mediated increases in PI3K/AKT pathway activation
aberrant activation of the PI3K/AKT pathway by α-Syn (PI3K/AKT pathway [3]): reduce the aberrant activation of this pathway by α-Syn

O=C(CN1CCN(C(=O)c2ccco2)CC1)Nc1cc(C(F)(F)F)ccc1Cl [ML348]
effects of α-Syn to enhance PIP3 levels (PIP3 to PIP2 ratio) [4]: interfere with the effects of α-Syn to enhance PIP3 levels

COc1ccc(N2CCN(C(=O)c3cc4c(s3)-c3ccccc3S(=O)(=O)C4)CC2)cc1 [ML349]
effects of α-Syn to enhance PIP3 levels (PIP3 to PIP2 ratio) [4]: interfere with the effects of α-Syn to enhance PIP3 levels

NC1(c2ccc(-c3nc4ccn5c(=O)[nH]nc5c4cc3-c3ccccc3)cc2)CCC1 [MK2206]
aberrant activation of the PI3K/AKT pathway by α-Syn (PI3K/AKT pathway [3]): reduce the aberrant activation of this pathway by α-Syn

CO[C@H]1C[C@@H]2CC[C@@H](C)[C@@](O)(O2)C(=O)C(=O)N2CCCC[C@H]2C(=O)O[C@H]([C@H](C)C[C@@H]2CC[C@@H](O)[C@H](OC)C2)CC(=O)[C@H](C)/C=C(\C)[C@@H](O)[C@@H](OC)C(=O)[C@H](C)C[C@H](C)/C=C/C=C/C=C/1C [rapamycin]
α-Syn-induced CME (568-Tf internalization) (HEK 293T cells [5]): no effect
PI4,5P2 levels (HEK 293T cells [6]): 26%
